{"source": "paper PMC12259270", "about": "“Sensory neuron–expressed FGF13 controls nociceptive signaling in diabetic neuropathy models” (The Journal of Clinical Investigation, 2025)", "key": {"[1]": {"test_system": "C57BL/6 mice", "assay": "Mechanical sensitivity (von Frey, LVF/HVF) after intraplantar injection, mice without capsaicin", "assay_type": "in vivo, mouse", "parameters": "key to LVF Mean / HVF Mean: % withdrawals from 10 consecutive von Frey stimulations", "conditions": "Bup 7 mg/mL, without capsaicin", "description": "(§1) Experiments were performed on 6- to 12-week-old male C57BL/6 mice (The Jackson Laboratory, Bar Harbor, ME) housed in the AAALAC-accredited facility at the University of Texas Medical Branch. Mice were group-housed with up to 5 mice per cage on a 12-to-12-hour light–dark cycle and had access to water and food ad libitum. All protocols were approved by the Institutional Animal Care and Use Committee (IACUC) at the University of Texas Medical Branch and in accordance with the National Institutes of Health (NIH) guidelines.\n(§2) PW164 and ZL192 were dissolved in DMSO and saline in a ratio of 1:10. 0.1% capsaicin (10% ethanol, 10% Tween-20 in saline; Sigma-Aldrich). All the compounds were injected at the center of the hind paw. The control group received a DMSO-saline mixture. […]\n(§3) Assessment of mechanical sensitivity\nMechanical sensitivity was assessed using von Frey filaments (VFF 0.1g and 1.0 g force) in mice that were either naïve or received intraplantar (i.p.) injection of capsaicin. VFFs were applied at the injection site (capsaicin or drug unilateral intraderma l injection at the center of the hind paw using a 30 -G needle). VFF of 1.0 g force, which evokes a 40–60% withdrawal response in the naïve condition, was used to detect hyperalgesia, and VFF of 0.1 g […]\nmechanical sensitivity was expressed as % withdrawals from 10 consecutive stimulations. […]"}, "[2]": {"test_system": "C57BL/6 mice", "assay": "Capsaicin-induced mechanical hypersensitivity (von Frey)", "assay_type": "in vivo, mouse", "parameters": "LVF Mean / HVF Mean / MECHANICAL LVF / MECHANICAL HVF: unit not given here", "conditions": "Cap + Bup 7 mg/mL", "from_the_text": "(§4) FGF13 is a neuronal gene ubiquitously transcribed in DRG neuronal subtypes ([43]–[46]). To investigate neuronal subtype enrichment of the FGF13 transcript, we examined a gene panel including FGF13, SCN9A, and several marker genes in mouse single-cell transcriptomic data (Supplemental Figure 10) ([43]–[46]). […] Critically, putative silent nociceptors marked by somatostatin (SST), and the nicotinic cholinergic receptor α-3 subunit (CHRNA3) contribute to development of inflammatory mechanical hyperalgesia ([47]). […] We next determined if PW164 modulation of the FGF13/Nav1.7 complex could suppress nociceptive behaviors in WT mice. We tested whether intraplantar (i.pl.) injection (5 μL) of PW164 altered hind paw withdrawal in response to low or high intensity von Frey filament (LVF or HVF, respectively) mechanical stimulation (Figure 3A). […] Next, we evaluated PW164’s effect on mechanical and thermal hindpaw sensitivity in capsaicin-induced nociceptive hypersensitivity models. […] Next, we performed in vivo target validation in WT mice that received an intrathecal (i.t.) injection in L5 of AAV2-shFGF13 (6 μL, viral titers 1 × 10^12 vector genomes (vg)/mL); a control group received an equal number of AAV2-shCTRL particles (Figure 3C).\nas §1, §2\nBupivacaine was prepared from a 1:2 dilution with sterile 0.9% saline and locally injected in the center of the paw at 7 mg/ml.\n(§5) AAV2 viral particles packaged by the University of North Carolina Gene Therapy Core Facility (viral titer ranging […]\n(§6) Before intrathecal injections in the lumbar region, mice were maintained in an anesthetizing box with 2% isoflurane to induce unconsciousness. Six microliters of viral vector were gently injected into the CSF through a 30-gauge needle with a Hamilton syringe in the lumbar area between vertebrae L4 and L5 by gently gripping the iliac crest of the mouse and inserting the needle with an angle of 45°. The correct procedure was confirmed by the mouse’s tail reflexiv e flick.\nas §3\nMechanical sensitivity was assessed using von Frey filaments (VFF 0.1g and 1.0 g force) in mice that were either naïve or received intraplantar (i.p.) injection of capsaicin. VFFs were applied at the injection site (capsaicin or […]"}, "[3]": {"test_system": "FGF13 and Nav1.7 colocalization in hIPSC-derived sensory neurons", "assay": "Immunocytochemistry, FGF13 and Nav1.7 colocalization in RealDRG", "assay_type": "cell-based, human", "conditions": "Capsaicin, N 39", "description": "After treatment, coverslips containing hIPSC-derived sensory neurons were fixed with 4% PFA/4% sucrose for 15 minutes, permeabilized for 5 minutes using 0.1% Triton X-100 in PBS and blocked with 10% Normal Goat Serum (ThermoFisher Scientific) for 30 minutes. Cells were stained using primary antibodies ms IgG1 Nav1.7 […]\nTubulin (Abcam, catalog # ab18207; 1:2000) overnight at 4∘C in 3% BSA. Isotype specific secondary antibodies ms IgG1 Alexa 568 (Life Technologies, catalog # A-21124; 1:200), ms IgG2a Alexa 647 (Life Technologies, […]\napplied for 2 hours. After washing, cell membranes were labeled using CellBrite Cytoplasmic Membrane Dye (Biotium) according to manufacturer directions. After final washing, coverslips were mounted using ProLong Gold Antifade Mountant (ThermoFisher). hIPSC-derived sensory neurons were fixed at day 14 in buffered formalin (10 wt%/vol%, Fisher Scientific 23-305-510) for 10 minutes, permeabilized in DPBS plus Triton X-100 (0.2 vol%/vol%, MilliporeSigma, T8787-100ML), blocked in DPBS plus bovine serum albumin (1 wt%/vol%, MilliporeSigma A3059-100G) and Tween-20 (0.1 vol% MilliporeSigma P1379) for 2 hours, and incubated with primary antibodies overnight. Cultures were washed twice with blocking solution and incubated 1 hour with secondary antibodies. 4′,6-diamidino-2-phenylindole dilactate (DAPI, Thermo Fisher D3571) was added for 10 minutes before washing three times in DPBS. Antibodies used include: TUJ1 (1:250, MilliporeSigma MAB1637), […]\nand Alexa Fluor 555 Donkey anti-Rabbit (1:500, Thermo Fisher Scientific A-31572). Negative controls included"}, "[4]": {"test_system": "C57BL/6 mice", "assay": "Capsaicin-induced thermal hypersensitivity (Hargreaves)", "assay_type": "in vivo, mouse", "conditions": "Figure 3 B lower block (Vehicle vs PW 164), individual animals 1-20", "from_the_text": "as §4, §1, §2, §5\nas §6, with “flick. […]” for “flick.”"}, "[5]": {"target": "T1, FGF13 (protein used in surface plasmon resonance) (UniProt Q92913-2 1-192)", "T1 construct": "Fibroblast growth factor 13; also called fibroblast growth factor 13", "T1 sequence (looked up)": "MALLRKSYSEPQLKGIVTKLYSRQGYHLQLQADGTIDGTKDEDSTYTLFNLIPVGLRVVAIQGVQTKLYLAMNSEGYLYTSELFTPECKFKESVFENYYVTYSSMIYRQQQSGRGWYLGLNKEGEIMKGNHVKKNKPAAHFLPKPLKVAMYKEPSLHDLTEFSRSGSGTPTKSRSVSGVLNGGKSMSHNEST", "assay": "SPR; cell-free; FGF13 with Nav1.7 CTD, no compound", "conditions": "both partners purified"}}, "note": "“And” between values parts separate entries of the source, which are not always exact repeats. Equal values may be shown once. Residues, ends and D or L forms follow the SMILES beside them. *: point of attachment. Cbz = O=C(OCc1ccccc1)*; OtBu = CC(C)(C)O*"}
{"molecule": "CCCCN1CCCCC1C(=O)Nc1c(C)cccc1C", "note": "(racemic) [Bup]", "values": [{"measurement": "HVF Mean", "setting": "[1]; Time (h) 0", "result": 52}, {"measurement": "HVF Mean", "setting": "[1]; Time (h) 0.5", "result": 8}, {"measurement": "HVF Mean", "setting": "[1]; Time (h) 1", "result": 58}, {"measurement": "HVF Mean", "setting": "[1]; Time (h) 1.5", "result": 54}, {"measurement": "HVF Mean", "setting": "[1]; Time (h) 2", "result": 54}, {"measurement": "HVF Mean", "setting": "[2]; Time (h) 0", "result": 52}, {"measurement": "LVF Mean", "setting": "[2]; Time (h) 0", "result": 0}, {"measurement": "HVF Mean", "setting": "[2]; Time (h) 0.5", "result": 100}, {"measurement": "LVF Mean", "setting": "[2]; Time (h) 0.5", "result": 66}, {"measurement": "HVF Mean", "setting": "[2]; Time (h) 0.75", "result": 6}, {"measurement": "LVF Mean", "setting": "[2]; Time (h) 0.75", "result": 0}, {"measurement": "HVF Mean", "setting": "[2]; Time (h) 1", "result": 58}, {"measurement": "LVF Mean", "setting": "[2]; Time (h) 1", "result": 0}, {"measurement": "HVF Mean", "setting": "[2]; Time (h) 1.5", "result": 98}, {"measurement": "LVF Mean", "setting": "[2]; Time (h) 1.5", "result": 22}, {"measurement": "HVF Mean", "setting": "[2]; Time (h) 2", "result": 100}, {"measurement": "LVF Mean", "setting": "[2]; Time (h) 2", "result": 52}]}
{"molecule": "COc1cc(CNC(=O)CCCC/C=C/C(C)C)ccc1O", "note": "[Capsaicin]", "values": [{"measurement": "Figure S6C, Mean", "setting": "[3]; Distance 7.1166 microns", "result": 236.646}, {"measurement": "Figure S6C, Mean", "setting": "[3]; Distance 7.2484 microns", "result": 412.139}, {"measurement": "Figure S6C, Mean", "setting": "[3]; Distance 7.3801 microns", "result": 777.284}, {"measurement": "Figure S6C, Mean", "setting": "[3]; Distance 7.5119 microns", "result": 1294.71}, {"measurement": "Figure S6C, Mean", "setting": "[3]; Distance 7.6437 microns", "result": 1747.86}, {"measurement": "Figure S6C, Mean", "setting": "[3]; Distance 7.7755 microns", "result": 1996.82}, {"measurement": "Figure S6C, Mean", "setting": "[3]; Distance 7.9073 microns", "result": 2041.85}, {"measurement": "Figure S6C, Mean", "setting": "[3]; Distance 8.0391 microns", "result": 2010.31}, {"measurement": "Figure S6C, Mean", "setting": "[3]; Distance 8.1709 microns", "result": 1934.86}, {"measurement": "Figure S6C, Mean", "setting": "[3]; Distance 8.3027 microns", "result": 1848.17}, {"measurement": "Figure S6C, Mean", "setting": "[3]; Distance 8.4344 microns", "result": 1793.9}, {"measurement": "Figure S6C, Mean", "setting": "[3]; Distance 8.5662 microns", "result": 1740.61}, {"measurement": "Figure S6C, Mean", "setting": "[3]; Distance 8.698 microns", "result": 1651.29}, {"measurement": "Figure S6C, Mean", "setting": "[3]; Distance 8.8298 microns", "result": 1564.27}, {"measurement": "Figure S6C, Mean", "setting": "[3]; Distance 8.9616 microns", "result": 1524.73}, {"measurement": "Figure S6C, Mean", "setting": "[3]; Distance 9.0934 microns", "result": 1474.75}]}
{"molecule": "COC(=O)[C@@H](NC(=O)[C@H](CCC(=O)OC(C)(C)C)NC(=O)[C@H](CC(C)C)NC(=O)[C@@H]1CCCN1C(=O)OCc1ccccc1)C(C)C", "note": "[PW 164] (Cbz-PLE(OtBu)V-OMe)", "values": [{"measurement": "Paw withdrawal latency", "setting": "[4]; Time (h) 0.5", "result": "6.8 s and 5.5 s (2×) and 2.93 s and 6.4 s and 5.33 s and 6.3 s and 4.8 s and 4.23 s and 4.87 s and 3.47 s and 5.6 s and 4.1 s and 4.4 s and 2.87 s and 8.3 s and 5.93 s and 5 s and 4.2 s and 6.1 s"}, {"measurement": "Paw withdrawal latency", "setting": "[4]; Time (h) 1", "result": "11.43 s and 10.43 s and 13.57 s and 12.1 s and 12.5 s and 12.33 s and 11.6 s and 11.33 s and 13.2 s and 15.4 s and 16 s and 12.63 s and 16.3 s and 11.83 s and 17.37 s and 20 s and 12.8 s and 12.17 s and 18.37 s and 16.47 s"}, {"measurement": "Paw withdrawal latency", "setting": "[4]; Time (h) 1.5", "result": "12.6 s and 12.77 s and 10.5 s and 11.3 s and 13.4 s and 7.9 s and 8 s and 9.27 s and 11.73 s and 9.97 s and 16.43 s and 14.37 s and 15.37 s and 12.23 s and 13.13 s and 18.63 s and 15.2 s and 17.17 s and 10.23 s and 9.23 s"}, {"measurement": "Paw withdrawal latency", "setting": "[4]; Time (h) 2.5", "result": "12.63 s and 12.73 s and 10.73 s and 10.97 s and 13.83 s and 8.87 s and 8.63 s and 9.6 s and 15.4 s and 19.5667 s and 15.7667 s and 13.6 s and 14.9333 s (2×) and 14.7333 s and 11.4667 s and 11.1333 s and 10.5667 s and 15.1 s and 13.2 s"}, {"measurement": "Paw withdrawal latency", "setting": "[4]; Time (h) BN (baseline)", "result": "12.77 s and 12 s and 12.53 s and 10.8 s and 11.1 s and 12.43 s and 10.77 s (2×) and 12.33 s (2×) and 12.47 s (2×) and 14.53 s and 12.9 s and 11.27 s (2×) and 13.5 s and 11.07 s and 12.6 s and 10.67 s"}]}
{"molecule": "QEDVSATVIQRAYRRYRLRQNVK (domain or fragment, synthetic peptide from supplementary SPR methods (stated as residues 1876-1899, 23 aa); used unconjugated as analyte over immobilized FGF13, and biotinylated (biotin position not stated) when …)", "note": "[Nav1.7 CTD (fragment used in surface plasmon resonance)]", "values": [{"measurement": "Kd", "setting": "[5]", "result": "75 ± 3", "unit": "nM"}]}
